# Results published in patent US20060009425A1, “Oral formulations of paricalcitol” (priority 2004, published 2006).
# Where two headings read alike, the source gives them in different places.
# Columns and labels:
# [1] = tested on: biochemical bone activity markers; experiment: Phase 3 once daily study, biochemical bone activity markers (Table E); format: in vivo, human; conditions: CKD Stage 3 and 4, daily (QD) treated subjects (Table E)
# Description: Serum bone-specific alkaline phosphate and serum osteocalcin are considered more sensitive bone markers to evaluate degree of bone remodeling than urinary bone marker. […] As shown in Examples 5-7 and Tables C (Example 5), Table D (Example 6) and Table E (Example 7), certain biochemical bone activity marker variables were analyzed in CKD Stage 3 and 4 subjects. These subjects received treatment with the oral formulations of the present invention or a placebo. The bone markers examined in these subjects were serum osteocalcin, serum bone-specific alkaline phosphatase, urinary pyridinoline, and deoxypyridinoline. If more than 1 biochemical bone activity marker measurement existed for a subject on a particular day, the higher measurement was considered to be that subject's biochemical bone activity marker measurement for that day. […] The Final Visit measurement was defined as the last biochemical bone activity marker measurement following the first dose of study drug.
# The Week 11 Visit measurement was defined as the biochemical bone activity marker measurement on the day closest to the Week 11 scheduled visit, for which the possible measurements to choose from were those collected within 64 and 77 days following the first dose of study drug.
# Changes from baseline to Week 11 Visit and to Final Visit in biochemical bone activity markers were compared between oral paricalcitol and placebo using an ANOVA with treatment as the factor on the combined Phase 3 all treated subject population (Table F). Also, the changes from baseline to Week 11 Visit and to Final Visit were compared between oral paricalcitol and placebo using an ANCOVA with baseline as the second factor on the combined Phase 3 all treated subject population (Table G).
# During the Treatment Phase, subjects were to self-administer study drug once daily for a total of 24 weeks. The initial dose was 1 or 2 mcg (depending on baseline iPTH levels). Procedures to be performed during the Treatment Phase included vital signs, chemistry and hematology, urinary pyridinoline, urinary deoxypyridinoline, serum bone-specific alkaline phosphatase, serum osteocalcin, urinalysis, spot urine for calcium/creatinine ratio, and recording of adverse events and concurrent medications. Serum iPTH, calcium, phosphorus, and albumin were measured every 2 weeks. Dose adjustments were to be made according to these chemistry results for iPTH, calcium, and phosphorus. Doses may have been increased in 1 mcg increments every 4 weeks. Dose reductions were to occur according to a protocol-specified algorithm. However, dosing could have been adjusted any time if, in the judgment of the Investigator, a risk to subject safety existed.
# [2] = Single and multiple dose pharmacokinetics, 4 μg QD vs 8 μg TIW, subjects in general good health (Example 5); format: in vivo, human; conditions: for AUC(0-inf) / Cmax / Tmax / half-life / AUC(0-t): human, plasma, oral; for half-life: harmonic mean ± pseudo-standard deviation
# Description: Methodology: This Phase I, multiple-dose, open-label, randomized study was conducted according to an […], crossover design. Subjects were randomized into two sequence groups of equal size of Regimens A and B. Subjects received the following regimens: • Regimen A: One 4 μg paricalcitol soft elastic capsule on Study Day 1 and one 4 μg paricalcitol capsule QD for 11 doses on Study Days 3 through 13. • Regimen B: Two 4 μg paricalcitol soft elastic capsules three times a week (8 μg TIW) for 6 doses on Study Days 1, 3, 5, 8, 10, and 12.
# The paricalcitol dose was administered at approximately 0700, 30 minutes after breakfast was served on the dosing days of each period. Each dose was administered orally with 240 mL of water. A washout interval of at least 7 days separated the dose of period 1 and dose of period 2.
# Seven (7) mL blood samples (to yield at least 3 mL of plasma) were obtained by venipuncture for paricalcitol plasma concentration into appropriately labeled EDTA-containing collection tubes. The blood sampling was as shown below in Table 10.
# For Regimen B, a blood sample was collected 48 hours after the Study Day 5 dose (Study Day 7) and immediately prior to dosing (0 hour) on Study Day 10.
# Plasma concentrations of paricalcitol were determined using a validated liquid chromatography-tandem mass spectrometric assay method at Abbott Laboratories, Abbott Park, Ill. (a proprietary method of Abbott Laboratories). The lower limit of quantification (abbreviated as “LOQ”) of paricalcitol was 0.02 ng/mL using a 0.6 mL plasma sample.
# Pharmacokinetics: The following pharmacokinetic parameter values were determined using standard non-compartmental methods: maximum observed plasma concentration (Cmax), time to Cmax(Tmax), terminal phase elimination rate constant (β), terminal elimination half-life (t1/2), area under the plasma concentration vs. time curve extrapolated to infinite time (AUC0-∞) following the first dose and area under the plasma concentration vs. time curve over the dose interval at steady state (AUC0-τ; also referred to as AUC0-48 or AUC0-24 as appropriate). Accumulation index (AI) and degree of fluctuation (DFL) were also evaluated at steady state.
# Statistical Methods: An analysis of variance (ANOVA) was performed to compare single- and multiple-dose pharmacokinetics of paricalcitol. The model included effects for sequence, subject nested within sequence, day (i.e., first dose or last dose), and sequence by day interaction. The effect for subject was random, while all other effects were fixed. The analyzed variables include Tmax, β, and the logarithms of AUC and Cmax. The AUC value for the single dose was AUC0-∞, while the AUC for the multiple dose was AUC0-24. The trough concentrations were analyzed using the same ANOVA model described above to address the issue of steady state attainment for the QD regimen.
# The logarithmic transformation was also used for AUC. The model had effects for sequence, subject nested within sequence, period and regimen. The effect for subject was random, while all other effects were fixed. […] Study Day 1 Tmax, β, dose-normalized Cmax and AUC0-∞ from Regimen A and Regimen B were analyzed using the same ANOVA model. […] This same model again was used to compare Regimen A and Regimen B with respect to AI values.
# [3] = Regimen A 4 μg QD, Study Day 12
# [4] = Regimen A 4 μg QD, Study Day 13
# [5] = Regimen B 8 μg TIW, Study Day 1
# [6] = Regimen B 8 μg TIW, Study Day 12 and 13
# [7] = 4 ug, Regimen A 4 μg QD, Study Day 1
# [8] = 4 ug, Regimen A 4 μg QD, Study Day 12
# [9] = 4 ug, Regimen A 4 μg QD, Study Day 13
# [10] = 8 ug, Regimen B 8 μg TIW, Study Day 1
# [11] = 8 ug, Regimen B 8 μg TIW, Study Day 12 and 13
structure (smiles),measurement,setting,value
"C[C@H](/C=C/[C@H](C)C(C)(C)O)[C@H]1CC[C@H]2/C(=C/C=C3C[C@@H](O)C[C@H](O)C3)CCC[C@]12C [Paricalcitol, 19-nor-1α,3β,25-trihydroxy-9,10-secoergosta-5(Z); 7(E),22(E)-triene]","Serum Bone-Specific Alkaline Phosphatase, Change from Baseline (SE) to Final",[1],−7.575 (1.3976) mcg/L
same,"Serum Bone-Specific Alkaline Phosphatase, Change from Baseline (SE) to Week 11",[1],−5.383 (1.0482) mcg/L
same,"Serum Osteocalcin, Change from Baseline (SE) to Final",[1],−27.07 (5.544) ng/mL
same,"Serum Osteocalcin, Change from Baseline (SE) to Week 11",[1],−0.22 (4.968) ng/mL
same,"Urinary Deoxypyridinoline, Change from Baseline (SE) to Final",[1],0.0100 (0.01392) nmol/mg Creat
same,"Urinary Deoxypyridinoline, Change from Baseline (SE) to Week 11",[1],−0.0216 (0.01018) nmol/mg Creat
same,"Urinary Pyridinoline, Change from Baseline (SE) to Final",[1],0.26 (4.452) nmol/mmol Creat
same,"Urinary Pyridinoline, Change from Baseline (SE) to Week 11",[1],−5.27 (3.884) nmol/mmol Creat
same,steady state reached by,[2]; 4 μg QD or 8 μg TIW,≤ 7 Study Day
same,CL/F,"[2]; Regimen A 4 μg QD, Study Day 1",3.95 ± 1.19^Φ L/h
same,Vdβ/F,"[2]; Regimen A 4 μg QD, Study Day 1",38.9 ± 18.7^Φ L
same,AI,[2]; [3],1.759 ± 1.829
same,CL/F,[2]; [3],4.33 ± 2.08 L/h
same,Cmin,[2]; [3],0.005 ± 0.010 ng/mL
same,DFL,[2]; [3],2.584 ± 0.889
same,Vdβ/F,[2]; [3],44.9 ± 23.0^ε L
same,AI,[2]; [4],1.483 ± 1.442
same,AUC/Dose (AUC0-24/Dose),[2]; [4],0.226 ± 0.049 ng·h/mL/µg
same,CL/F,[2]; [4],4.65 ± 1.16 L/h
same,Cmin,[2]; [4],0.001 ± 0.005 ng/mL
same,DFL,[2]; [4],2.761 ± 0.761
same,Vdβ/F,[2]; [4],43.7 ± 17.9^ε L
same,CL/F,[2]; [5],3.65 ± 1.61 L/h
same,Vdβ/F,[2]; [5],41.0 ± 12.7 L
same,AI,[2]; [6],1.000 ± 0.312
same,CL/F,[2]; [6],3.79 ± 1.07 L/h
same,Cmin,[2]; [6],0.000 ± 0.000 ng/mL
same,DFL,[2]; [6],4.637 ± 1.397
same,Vdβ/F,[2]; [6],42.1 ± 28.7^δ L
same,AUC(0-inf),[2]; [7],1.11 ± 0.342 ng·h/mL
same,Cmax,[2]; [7],0.1 ± 0.033 ng/mL
same,Tmax,[2]; [7],4.8 ± 2.8 h
same,half-life,[2]; [7],6.2 ± 2.1 h
same,AUC(0-t),"[2]; 4 ug, Regimen A 4 μg QD, Study Day 1, read-out: AUC0-t",0.701 ± 0.339 ng·h/mL
same,Cmax,[2]; [8],0.112 ± 0.031 ng/mL
same,Tmax,[2]; [8],4.4 ± 2.6 h
same,half-life,[2]; [8],6.8 ± 3.1 h
same,AUC(0-t),"[2]; 4 ug, Regimen A 4 μg QD, Study Day 12, read-out: AUC0-τ (AUC0-24)",1.07 ± 0.359 ng·h/mL
same,Cmax,[2]; [9],0.105 ± 0.035 ng/mL
same,Tmax,[2]; [9],4.5 ± 1.6 h
same,half-life,[2]; [9],5.8 ± 2.5 h
same,AUC(0-t),"[2]; 4 ug, Regimen A 4 μg QD, Study Day 13, read-out: AUC0-τ (AUC0-24)",0.904 ± 0.196 ng·h/mL
same,AUC(0-inf),[2]; [10],2.55 ± 1.08 ng·h/mL
same,Cmax,[2]; [10],0.2 ± 0.062 ng/mL
same,Tmax,[2]; [10],4.4 ± 1.4 h
same,half-life,[2]; [10],7.3 ± 3.2 h
same,AUC(0-t),"[2]; 8 ug, Regimen B 8 μg TIW, Study Day 1, read-out: AUC0-t",2.05 ± 0.881 ng·h/mL
same,Cmax,[2]; [11],0.217 ± 0.077 ng/mL
same,Tmax,[2]; [11],4.3 ± 2.6 h
same,half-life,[2]; [11],6.8 ± 2.2 h
same,AUC(0-t),"[2]; 8 ug, Regimen B 8 μg TIW, Study Day 12 and 13, read-out: AUC0-τ (AUC0-48)",2.26 ± 0.566 ng·h/mL
same,dose proportionality of pharmacokinetics,[2]; single dose and steady state over the studied dose range,dose proportional
